# Results from patent US20240252586A1, “ENGINEERED ANTIMICROBIAL PEPTIDES AND USAGE THEREOF” (priority 2021, published 2024).
# Like-named read-outs stand apart in the source and are kept apart here. Where no end group is shown, it is not given here.
# Columns and labels:
# [1] = tested on: CoNS non-epidermidis; experiment: Broth microdilution MIC, PJI isolates (Example 1); type: cell-based, coagulase-negative staphylococci; settings: RPMI; N = 53
# Method: (§1) Imipenem, levofloxacin, tigecycline, linezolid, vancomycin, oxacillin, ceftazidime, colistin, and amikacin were tested as comparators. Testing was conducted in accordance with guidelines from the Clinical and Laboratory Standards Institute (CLSI; M7 and M100). Test organisms comprised reference strains from the American Type Culture Collection, the Centers for Disease Control Antibiotic Reference Bank and clinical isolates from the Micromyx repository.
# [2] = tested on: S. aureus; experiment: Broth microdilution MIC, PJI isolates (Example 1); type: cell-based, Staphylococcus aureus; settings: RPMI; N = 3
# Method: as §1
# [3] = tested on: Enterobacterales; experiment: Broth microdilution MIC, PJI isolates (Example 1); type: cell-based; settings: RPMI; N = 22
# Method: as §1
# [4] = tested on: P. aeruginosa; experiment: Broth microdilution MIC, PJI isolates (Example 1); type: cell-based, Pseudomonas aeruginosa; settings: RPMI; N = 20
# Method: as §1
# [5] = tested on: A. baumannii; experiment: Broth microdilution MIC, PJI isolates (Example 1); type: cell-based, Acinetobacter baumannii; settings: RPMI; N = 24
# Method: as §1
# [6] = tested on: 5 test isolates; settings: PBS and H2O, 1× and 0.5× MIC, all evaluated organisms
# Method: (§2) Base test media for the TK assay were phosphate-buffered saline (PBS), water, and cation-adjusted Mueller-Hinton broth (CAMHB), all adjusted to pH 7.4 with sodium hydroxide (NaOH) or hydrochloric acid (HCl) and then filter-sterilized.
# (§3) Double strength (2×) Dey/Engley neutralizing broth (D/E) was used as a neutralizer for dilution and plating during determination of CFU/mL at each TK assay time point. Track plating was conducted on TSAB for Staphylococcus aureus NRS382 and on TSA without sheep's blood for all other organisms. TSA was used for spread plate enumeration of CFU/mL during a pilot study testing toxicity of D/E to bacteria and neutralization of SEQ ID NO: 1 in D/E.
# (§4) Drug stocks of 5120 μg/mL in water at pH 5 were diluted in PBS pH-7.4 to 100× the final concentrations desired for each TK assay and frozen at −20° C. until use.
# (§5) The TK test panel was prepared in a 96-well deep well plate, where 890 μL of each test media and 10 μL of 100× drug stocks were added to the appropriate wells. A growth control containing no drug was included, where 10 μl of PBS (pH 7.4) was added in place of drug.
# (§6) A cell suspension was prepared from growth of a freshly streaked plate equivalent to the turbidity of a 0.5 McFarland standard in PBS at (pH 7.4). Deep-well test panels prepared as described above were inoculated with 100 μL of the 0.5 McFarland cell suspension, targeting a final inoculum of approximately 1 to 2×10^7 CFU/mL. During the TK assay, the 96 deep-well plate was left on the bench top at room temperature.
# (§7) Aliquots of 100 μL were removed from the test panel immediately (0 minutes), and at 2.5, 5, 10, 15, and 30 minutes, and mixed with 100 μL 2×D/E to neutralize the rapid bactericidal activity of SEQ ID NO: 1. Cells were then serially diluted ten-fold in 2× Dey/Engley broth four times yielding a dilution series ranging from 2 to 2×10-4. Ten microliters from each step of the dilution series were track-plated in duplicate on TSA to enumerate viable counts (CFU/mL). Plates were then incubated at 35° C. overnight.
# (§8) The resulting colonies were counted, and viable counts (CFU/mL) were determined from the average count of the duplicate plates. The limit of detection (LOD) for the assay was 100 CFU/mL. The LOD reflects the average CFU/ml if just one colony grew from the least diluted sample (DF=2) between the two track plate replicates, where 10 μL had been plated. Log-transformed viable counts (log10 CFU/mL) were then plotted vs. time.
# [7] = tested on: E. Coli CDC 0451; settings: 1× MIC, PBS, without sodium bicarbonate
# Method: as §2, §3, §4, §5, §6, §7, §8
# [8] = tested on: S. aureus NRS 384
# Method: as §2, §3, §4, §5, §6, §7, §8
# [9] = tested on: S. epidermidis MMX 8655; settings: by […]; 1× MIC; PBS and H2O
# Method: as §2, §3, §4, §5, §6, §7, §8
# [10] = tested on: Staphylococcus aureus SH1000; settings: both concentrations (1 and 5 mg/mL)
# Method: A bone tunnel in the tibial canal was created using a drill with a 1.2 mm or 1.6 mm tungsten carbide drill bit. The bone tunnel was then dried and treated to stimulate acute human PJI following primary arthroplasty. A Kirschner wire implant of 2 cm long with a 0.3 cm long top hook was placed in the bone tunnel and the wound was closed. Prior to closure of the superficial skin layer, 0.1 mL of 2×10^6 planktonic Staphylococcus aureus SH1000 (CFU/rabbit) in saline was injected into the joint space. A closure was performed, and a biofilm was allowed to become established over a period of 2 days.
# At 2 days post infection, irrigation and debridement (I&D) was performed on the infected joint. […] Additionally, an intravenous administration of an antibiotic was administered. Bacterial burden was determined by colony forming unit (CFU) analysis.
# Animals were observed up to 28 days. […] When an animal was sick or needed to be euthanized, the implant and a part of the tibia was collected post mortem and bacterial burden was determined by CFU analysis.
# The following parameters and endpoints were evaluated in this study: X-ray for proper implant placement, bacterial burden by colony forming unit analysis (CFU), general clinical signs, detailed clinical signs, body weights, body weight changes, temperature, mortality, blood culture, erythrocyte sedimentation rate (ESR), and C-reactive protein levels (CRP). […]
sequence,measurement,setting,value
RRWVRRVRRVWRRVVRVVRRWVRR [SEQ ID NO: 1],MIC50,[1],0.06 µg/mL
same,MIC90,[1],0.06 µg/mL
same,MIC50,[2],0.12 µg/mL
same,MIC90,[2],0.12 µg/mL
same,MIC50,[3],0.5 µg/mL
same,MIC90,[3],0.5 µg/mL
same,MIC50,[4],1 µg/mL
same,MIC90,[4],1 µg/mL
same,MIC50,[5],0.25 µg/mL
same,MIC90,[5],0.25 µg/mL
same,log killing,[6],Greater than 1 log
same,killing (log),[7],> 3
same,log-kill,"[8]; 0 min, 0.5 and 1× MIC in H2O, absence of sodium bicarbonate",≥ 3 log
same,log-kill,"[8]; after […], 1× MIC in PBS +/- sodium bicarbonate",~3 log
same,log-kill,"[8]; by […], 0.5 and 1× MIC in H2O, presence of sodium bicarbonate",≥ 3 log
same,log-kill,[9],~3 log
same,body weight vs control group,[10],no statistically significant bodyweight differences
